For this experiment, the target named is ADORA3 (Homo sapiens (Human), UniProt P0DMS8). As to the kind of experiment: Intracellular calcium release assay (FLIPR). In kind it is cell-based. Particulars: for EC50: CHO-K1 cells, Fluo-4, top concentration 10 μM, read-out: Cell Calcium Assay EC50; for Cell Calcium Efficacy (%): percentage of the response to NECA. As to the method:
Example 32: Intracellular Calcium Release Assay
Cell Culture: The table below lists the cell lines used that stably express the 4 subtypes of adenosine receptors, along with the growth medium used for each:
For experiments with the ADORA1- and ADORA3-expressing cells, the medium was aspirated and the cells washed twice with 10 mL DPBS. Two mL of trypsin was added and incubated at 37° C. for 1 minute. Then 10 mL of platting media was added to terminate the digestion and 1 mL of the solution was taken out for cell counting. ADORA2A- and ADORA2B-expressing cells were thawed rapidly in a 37° C. water bath. Cell suspensions were transferred to 50 mL conical tubes. Plating media was added to the 10 mL mark and then 1 mL taken out for cell counting. The 50 mL tubes containing the various types of cells were centrifuged at 1000 g. Then the supernatants were aspirated, being careful not to aspirate the cells. The cell pellets were resuspended in 3-5 mL platting media, then 0.5 mL was taken out for cell counting. Then the cell suspension was diluted to 1×10^6 cells/mL (20,000 cells per 20 μL per well) in platting medium, and cells were seeded into 384-well cell plates (Greiner-781946). The 384-well cell plate was placed in a 37° C./5% CO2 incubator (Thermo-371, Thermo Scientific) for 16-20 hours.
Preparation of the intracellular calcium imaging agent (Fluo-4 Direct™ Calcium Assay Kit, Invitrogen-F10471, Thermo Scientific): One mL of FLIPR Assay Buffer was added to 77 mg probenecid to make a 250 mM solution, which was used fresh for each day. One vial of Fluo-4 Direct™ crystals was thawed and 10 mL of FLIPR Assay Buffer was added to the vial. 0.2 mL of probenecid was added to each 10 mL vial of Fluo-Direct™ solution, such that the final assay concentration was 2.5 mM. It was vortexed, left to stand >5 min and protected from light. The dye was prepared fresh each day.
Compound Preparation: Compound plates were prepared as follows. First, the test compound was diluted to prepare a 2 mM solution and then 10-point 3-fold serial dilutions were made using ECHO (ECHO 555, LabCyte), then 900 nL was transferred to the compound plate. For all targets, the final top concentration of the test compound was […]. For agonist reference compounds, 10-point and 3-fold serial dilutions were made, then 900 nL was transferred to the assay plate. Then 30 μL of assay buffer was added to the compound plate and then the plate was centrifuged at 1000 rpm for 1 min.
FLIPR Assay: Cell plates were removed from the incubator, to which were added 20 μL 2×Fluo-4 Direct™ solution, then the plates were reincubated in a 5% CO2, 37° C. incubator for 50 min and at RT for 10 min. To run the protocol on the Fluorescent Imaging Plate Reader (FLIPR) TETRA (MD-FT0249, Molecular Devices, Inc.), 10 μL of assay buffer was transferred from the 384-well plate (Greiner-781280) to the cell plates and then the fluorescence signal was read. Then 10 μL of compound solution was transferred from the compound plate to the cell plates and the fluorescence signal was read. The “Max-Min” was calculated, starting from Read 91 to the maximum allowed. For agonists, activation %=(RLU−LC)/(HC−LC)*100, based on the following: RLU=relative light unit, 91 to maximum allowed signal; HC=average signal of the high concentration of agonist; LC=average signal of DMSO well. The data were fitted using GraphPad Prism 5, using the model “log(agonist) vs. response—Variable slope” to determine the EC50 value. The receptor efficacy of the test compound relative to the agonist NECA was calculated as a percentage (%) of the response to […]. Table 10 includes EC50 values for compounds described herein.
In general terms: Calcium flux is commonly read through the fluorescence of an indicator in the cells.

Molecules are shown by their SMILES. Some results are limits rather than exact numbers.

The record followed here is patent US20230416245A1, “ADENOSINE ANALOGS FOR THE TREATMENT OF DISEASE” (BIOINTERVENE, INC., priority 2020, published 2023).

The EC50 is the concentration giving half of the maximal effect.

ADORA3, sequence (P0DMS8 whole entry): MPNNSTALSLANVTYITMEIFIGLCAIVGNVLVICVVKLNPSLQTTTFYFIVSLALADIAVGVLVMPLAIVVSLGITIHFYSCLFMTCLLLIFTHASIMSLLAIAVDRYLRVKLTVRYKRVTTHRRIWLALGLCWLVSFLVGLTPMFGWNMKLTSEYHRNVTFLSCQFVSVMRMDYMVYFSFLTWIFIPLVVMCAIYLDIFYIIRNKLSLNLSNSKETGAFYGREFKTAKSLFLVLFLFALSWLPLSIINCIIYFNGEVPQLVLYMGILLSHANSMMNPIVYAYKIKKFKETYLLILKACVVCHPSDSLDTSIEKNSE

As to `O[C@@H]1[C@H](O)[C@@H]2C[C@@H]2[C@H]1n1cnc2c(NCCF)nc(Cl)nc21` [Compound 36, (1R,2R,3S,4R,5S)-4-(2-chloro-6-((2-fluoroethyl)amino)-9H-purin-9-yl)bicyclo[3.1.0]hexane-2,3-diol], the concentration for a half-maximal effect (EC50) is 0.0092 µM and the “Cell Calcium Efficacy (%)” value came to 44.9%.
With `O[C@@H]1[C@H](O)[C@@H]2C[C@@H]2[C@H]1n1cnc2c(NCC(F)(F)F)cc(Cl)nc21` [Compound 42, (1R,2R,3S,4R,5S)-4-(5-chloro-7-((2,2,2-trifluoroethyl)amino)-3H-imidazo[4,5-b]pyridin-3-yl)bicyclo[3.1.0]hexane-2,3-diol], the concentration giving a half-maximal response (EC50) was found to be 0.0434 µM and the “Cell Calcium Efficacy (%)” value worked out at 45.8%.
The like results for `Cc1cc(COc2ccc(Cl)cc2CNc2cc(Cl)nc3c2ncn3[C@H]2[C@H](O)[C@H](O)[C@@H]3C[C@@H]32)on1` [Compound 75, (1R,2R,3S,4R,5S)-4-(5-chloro-7-((5-chloro-2-((3-methylisoxazol-5-yl)methoxy)benzyl)amino)-3H-imidazo[4,5-b]pyridin-3-yl)bicyclo[3.1.0]hexane-2,3-diol] were, in that order, ≥ 10 µM and 1.7%.
On to `O[C@@H]1[C@H](O)[C@@H]2C[C@@H]2[C@H]1n1cnc2c(NCC(F)F)nc(C3CC3)nc21` [Compound 58], for which the EC50 came to 0.0254 µM and the “Cell Calcium Efficacy (%)” value is reported as 14.2%.
Regarding `CCNc1cc(C)nc2c1ncn2[C@H]1[C@H](O)[C@H](O)[C@@H]2C[C@@H]21` [Compound 49, (1R,2R,3S,4R,5S)-4-(7-(ethylamino)-5-methyl-3H-imidazo[4,5-b]pyridin-3-yl)bicyclo[3.1.0]hexane-2,3-diol], the concentration for a half-maximal effect (EC50) is 0.0171 µM and the “Cell Calcium Efficacy (%)” value came out at 6.8%.
On to `O[C@@H]1[C@H](O)[C@@H]2C[C@@H]2[C@H]1n1cnc2c(NCC(F)(F)F)nc(Cl)nc21` [Compound 37, (1R,2R,3S,4R,5S)-4-(2-chloro-6-((2,2,2-trifluoroethyl)amino)-9H-purin-9-yl)bicyclo[3.1.0]hexane-2,3-diol], for which the EC50 came out at 0.0128 µM and the “Cell Calcium Efficacy (%)” value is 49.4%.
For `Cc1cc(NCc2cc(F)ccc2F)c2ncn([C@H]3[C@H](O)[C@H](O)[C@@H]4C[C@@H]43)c2n1` [Compound 50, (1R,2R,3S,4R,5S)-4-(7-((2,5-difluorobenzyl)amino)-5-methyl-3H-imidazo[4,5-b]pyridin-3-yl)bicyclo[3.1.0]hexane-2,3-diol] the same measures were 0.054 µM and 12.3%.
For the compound `CCNc1cc(Cl)nc2c1ncn2[C@H]1[C@H](O)[C@H](O)[C@@H]2C[C@@H]21` [Compound 43, (1R,2R,3S,4R,5S)-4-(5-chloro-7-(ethylamino)-3H-imidazo[4,5-b]pyridin-3-yl)bicyclo[3.1.0]hexane-2,3-diol], the concentration giving a half-maximal response (EC50) is 0.0051 µM and the “Cell Calcium Efficacy (%)” value is on record as 50.3%.
For `Cc1cc(NCC(F)F)c2ncn([C@H]3[C@H](O)[C@H](O)[C@@H]4C[C@@H]43)c2n1` [Compound 47, (1R,2R,3S,4R,5S)-4-(7-((2,2-difluoroethyl)amino)-5-methyl-3H-imidazo[4,5-b]pyridin-3-yl)bicyclo[3.1.0]hexane-2,3-diol] the same measures were 0.0512 µM and 33.1%.
In the case of `Cc1cc(NCCF)c2ncn([C@H]3[C@H](O)[C@H](O)[C@@H]4C[C@@H]43)c2n1` [Compound 48, (1R,2R,3S,4R,5S)-4-(7-((2-fluoroethyl)amino)-5-methyl-3H-imidazo[4,5-b]pyridin-3-yl)bicyclo[3.1.0]hexane-2,3-diol], the half-maximal effective concentration (EC50) stood at 0.0376 µM and the “Cell Calcium Efficacy (%)” value turned out to be 13.1%.
The like results for `CCNc1nc(Cl)nc2c1ncn2[C@H]1[C@H](O)[C@H](O)[C@]2(C(F)F)C[C@H]12` [Compound 53, (1S,2R,3S,4R,5S)-4-(2-chloro-6-(ethylamino)-9H-purin-9-yl)-1-(difluoromethyl)bicyclo[3.1.0]hexane-2,3-diol] were, in that order, ≥ 10 µM and 0.6%.
